The source of these data is ChEMBL document CHEMBL1127769, “Synthesis of new pyrazolo[4,3-e]1,2,4-triazolo[1,5-c] pyrimidine and 1,2,3-triazolo[4,5-e]1,2,4-triazolo[1,5-c] pyrimidine displaying potent and selective activity as A2a adenosine receptor antagonists” (Bioorg Med Chem Lett, 1994).

The target in test [1] is T1, Adenosine receptor A2a (Rattus norvegicus, UniProt P30543).
Description: Binding ability of adenosine A2a receptor by using [3H]-CGS- as radioligand in rat striatal homogenate
The next test concerns the target T2, Adenosine receptor A1 (Rattus norvegicus, UniProt P25099).
T2 sequence (P25099 whole entry): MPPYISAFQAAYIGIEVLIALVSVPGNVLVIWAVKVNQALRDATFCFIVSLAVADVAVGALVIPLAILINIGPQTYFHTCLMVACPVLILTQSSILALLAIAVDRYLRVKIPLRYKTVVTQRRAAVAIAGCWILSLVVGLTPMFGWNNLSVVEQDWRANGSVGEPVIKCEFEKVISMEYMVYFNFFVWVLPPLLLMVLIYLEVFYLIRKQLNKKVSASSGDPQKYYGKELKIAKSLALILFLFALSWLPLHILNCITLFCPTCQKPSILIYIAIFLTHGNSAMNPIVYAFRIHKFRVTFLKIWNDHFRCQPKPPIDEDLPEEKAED
The experiment in a line: biochemical.

The target of test [2] is T1, Adenosine receptor A2a. The experiment in a line: Displacement of [3H]-CGS- from Adenosine A2a receptor of rat striatal homogenate.

Structures are written as SMILES.

T1 sequence (P30543 whole entry): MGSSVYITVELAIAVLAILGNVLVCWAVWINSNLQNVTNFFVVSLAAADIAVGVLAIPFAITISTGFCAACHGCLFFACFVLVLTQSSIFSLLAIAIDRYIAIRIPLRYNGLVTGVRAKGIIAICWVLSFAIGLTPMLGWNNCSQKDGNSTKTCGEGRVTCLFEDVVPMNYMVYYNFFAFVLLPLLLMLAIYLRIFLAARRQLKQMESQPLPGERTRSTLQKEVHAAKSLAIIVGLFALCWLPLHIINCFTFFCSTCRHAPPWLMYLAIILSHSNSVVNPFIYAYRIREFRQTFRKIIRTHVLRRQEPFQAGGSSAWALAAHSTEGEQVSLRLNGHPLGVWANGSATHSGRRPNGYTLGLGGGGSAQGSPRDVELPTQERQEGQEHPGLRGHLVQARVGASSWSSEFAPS
Description for Adenosine receptor A1: Binding ability of adenosine A1 receptor by using [3H]CHA as radioligand in rat whole brain homogenate

The Ki is a measure of affinity in units of concentration, obtained from inhibition or displacement. High values mean a looser hold on the target, low ones a stronger hold on the target. With `Nc1nc2nn(CCc3ccccc3)cc2c2nc(-c3ccco3)nn12`, the Ki is 1.4 nM on Adenosine receptor A2a [1] and 4.7 nM on Adenosine receptor A1.
The corresponding values for `CCCCn1cc2c(nc(N)n3nc(-c4ccco4)nc23)n1` are 2.4 nM and 30.4 nM.
The corresponding values for `CCCCn1ncc2c1nc(N)n1nc(-c3ccco3)nc21` are 8.9 nM and 236 nM.
With `Cn1ncc2c1nc(N)n1nc(-c3ccco3)nc21`, the inhibition constant Ki worked out at 101 nM at Adenosine receptor A2a [1] and 651 nM at Adenosine receptor A1.
The corresponding values for `Nc1nc2nn(Cc3ccc(F)cc3)cc2c2nc(-c3ccco3)nn12` are 1.2 nM and 3.3 nM.
On to `CC(C)CCn1cc2c(nc(N)n3nc(-c4ccco4)nc23)n1`, for which the Ki on Adenosine receptor A1 was determined as 5.6 nM.
Turning to `Nc1nc2nn(Cc3ccc(F)cc3)nc2c2nc(-c3ccco3)nn12`, the results for the Ki on Adenosine receptor A2a [1] and at Adenosine receptor A1 were 2.5 nM and 18.3 nM, respectively.
As for `Nc1nc2c(nnn2Cc2ccccc2)c2nc(-c3ccco3)nn12`, the inhibition constant (Ki) at Adenosine receptor A2a [1] came to 4.6 nM; at Adenosine receptor A1, 6.1 nM.
As to `Nc1nc2c(nnn2Cc2ccc(F)cc2)c2nc(-c3ccco3)nn12`, the results for the inhibitory constant (Ki) at Adenosine receptor A2a [1] and at Adenosine receptor A1 were 13.7 nM and 61.2 nM, respectively.
`Nc1nc2c(nnn2Cc2cccc(F)c2)c2nc(-c3ccco3)nn12`: the Ki amounted to 4.9 nM on Adenosine receptor A2a [1] and 19 nM on Adenosine receptor A1.
The corresponding values for `Nc1nc2c(nnn2CCc2ccccc2)c2nc(-c3ccco3)nn12` are 6.9 nM and 42.4 nM.
The corresponding values for `Nc1nc2c(nnn2Cc2ccccc2F)c2nc(-c3ccco3)nn12` are 10.4 nM and 13.7 nM.
Take `CC(C)CCn1ncc2c1nc(N)n1nc(-c3ccco3)nc21`: the Ki at Adenosine receptor A2a [1] came to 12 nM; on Adenosine receptor A1, 116 nM.
At Adenosine receptor A2a [2], `Nc1nc2ccc(Cl)cc2c2nc(-c3ccco3)nn12` [CGS-15943] displayed an inhibition constant (Ki) of 1.2 nM.
